Assays:
[1] = test system: Anopheles gambiae larvae of resistant strain AcerKis; assay: Larval sensitivity test (cup test), AcerKis strain; assay type: in vivo; settings: for LC10 - 24 hours / LC10 - 48 hours: AcerKis larvae, graphical projection from log-probit regression curves; for LC10 - 24 hours: 24 hours exposure; for LC10 - 48 hours: 48 hours exposure
Protocol: Larval Testing Protocol. The larval sensitivity test or cup test, which was used in the present study, assesses the sensitivity of mosquito larvae to insecticides and repellents. The larvae were placed in cups containing 100 mL of osmosis water added with the substance to be tested or with only solvent in the case of the controls (see FIG. 3). Four containers (cups) of 25 larvae were exposed to one modality, for a total of 100 larvae. The mortality rate was observed 24 hours after exposure to the insecticide. The mosquitoes used were late L3/early L4 larvae (last larval stages) of Anopheles gambiae, sensitive Kis reference strain and a resistant strain AcerKis, grown in the MIVEGEC laboratory under standardized conditions.
(§1) Methodology of the WHO-certified Test of the Sensitivity of Larvae to Insectivides and Repellents. The sensitivity to insecticides and repellents of the Anopheles gambia mosquito larvae of the sensitive Kis strain and of the resistant AcerKis and KdrKis strains, was determined using the larval sensitivity test (or WHO-certified cup test). The larvae, selected at the L3/L4 stages, were placed in cups containing 100 mL of osmosis water in the presence of the substance to be tested or only the solvent in the case of controls. Four cups of 25 larvae were exposed to one modality, for a total of 100 larvae. The mortality rate was observed 24 […] and 48 hours after exposure to the insecticide. The mortality rates presented herein were corrected for the mortality observed in the controls of each replicate according to the Abbott formula (Abbott, J. Econom. Entomol., 1925, 18: 265-267).

[2] = test system: Anopheles gambiae larvae of resistant strain KdrKis; assay: Larval sensitivity test (WHO-certified cup test), KdrKis strain; assay type: in vivo; settings: for LC10 - 24 hours / LC10 - 48 hours: KdrKis larvae, graphical projection from log-probit regression curves; for LC10 - 24 hours: 24 hours exposure; for LC10 - 48 hours: 48 hours exposure
Protocol: as §1

| SMILES | Mortality rate of larvae ([1]; AcerKis, IR3535 alone 1000 to 4000 mg/L, 24 and 48 hours) | Mortality rate of larvae ([2]; KdrKis, IR3535 alone 1000 to 4000 mg/L, 24 and 48 hours) | LC10 - 24 hours [1] [mg/L] | LC10 - 48 hours [1] [mg/L] | LC10 - 24 hours [2] [mg/L] | LC10 - 48 hours [2] [mg/L] |
| --- | --- | --- | --- | --- | --- | --- |
| CCCCN(CCC(=O)OCC)C(C)=O [IR3535, ethyl N-acetyl-N-butyl-β-alaninate] | less than 5% | less than 5% | – | – | – | – |
| N#C/N=C1\SCCN1Cc1ccc(Cl)nc1 [Thiacloprid, {(2Z)-3-[(6-Chloropyridin-3-yl)methyl]-1,3-thiazolidin-2-ylidene}cyanamide] | – | – | 0.02 | 0.01 | 0.02 | 0.01 |
| CN1COCN(Cc2cnc(Cl)s2)C1=N[N+](=O)[O-] [Thiamethoxam, 3-[(2-Chloro-1,3-thiazol-5-yl)methyl]-5-methyl-N-nitro-1,3,5-oxadiazinan-4-imine] | – | – | 0.04 | 0.01 | 0.04 | 0.02 |
